Biological target: Platelet-derived growth factor receptor (Mus musculus, UniProt P05622+P26618)
Test: Inhibitory activity against platelet-derived growth factor receptor tyrosine kinase in Swiss 3T3 cells
Type: cell-based

IC50 [µM] | SMILES
> 50 | Cc1cc2nc(CN(C)C)c(-c3ccccc3)nc2cc1C
0.8 | COc1cc2ncc(-c3ccccc3)nc2cc1OC
> 50 | CCOCc1nc2cc(C)c(C)cc2nc1-c1ccccc1
1 | Cc1cc2nc(C(=O)O)c(-c3ccccc3)nc2cc1C
> 50 | Cc1cc2nc(CP(=O)(O)O)c(-c3ccccc3)nc2cc1C
> 50 | Cc1cc2nc(Cl)c(-c3ccccc3)nc2cc1C
> 50 | CCOP(=O)(Cc1nc2cc(C)c(C)cc2nc1-c1ccccc1)OCC
> 50 | COc1cc2nc(O)c(-c3ccccc3)nc2cc1OC
> 50 | Cc1cc2nc(C=O)c(-c3ccccc3)nc2cc1C
> 50 | Cc1cc2nc(O)c(-c3ccccc3)[n+]([O-])c2cc1C
> 50 | CCOC(=O)c1nc2cc(C)c(C)cc2nc1-c1ccccc1
> 50 | Cc1cc2nc(C)c(-c3ccccc3)nc2cc1C
> 100 | Cc1cc2nc(-c3ccccn3)c(-c3ccccn3)nc2cc1C
10 | Cc1cc2nc(O)c(-c3ccccc3)nc2cc1C
> 50 | Cc1cc2nc(CBr)c(-c3ccccc3)nc2cc1C

Further lines, the molecule ahead of its results:

SMILES | IC50 [µM]
c1ccc2nc(-c3ccsc3)cnc2c1 | > 100
c1ccc(-c2nc3ccccc3nc2-c2ccccn2)nc1 | 100
O=[N+]([O-])c1ccc2ncc(-c3ccccc3)nc2c1 | 25
Nc1ncnc2ncc(-c3ccccc3)nc12 | > 50
Cc1nc2ccccc2nc1C | > 100
c1coc(-c2cnc3ccccc3n2)c1 | > 100
c1csc(-c2cnc3ccccc3n2)c1 | 100
Oc1cc2ncc(-c3ccccc3)nc2cc1O | > 100
Cc1cc2nc(C)c(C)nc2cc1C | > 50
Cc1ccc2ncc(-c3ccccc3)nc2c1 | 90
c1ccc(-c2ccc(-c3cnc4ccccc4n3)s2)cc1 | > 100
Cc1cc2nc(CSCCCSCc3nc4cc(C)c(C)cc4nc3-c3ccccc3)c(-c3ccccc3)nc2cc1C | > 50
COc1cc2nc(-c3ccccc3)cnc2cc1O | 100
O=c1nc2[nH]c3ccccc3nc-2c(=O)[nH]1 [ALLOXAZINE] | > 50
Cc1ccc(-c2cnc3ccccc3n2)s1 | > 100
Clc1cc2ncc(-c3ccccc3)nc2cc1Cl | > 50
c1ccc(-c2cnc3ccccc3n2)cc1 | 10
CC(C)CCc1ccc(-c2cnc3ccccc3n2)s1 | > 100
Cc1cc2nc(CSCc3nc4cc(C)c(C)cc4nc3-c3ccccc3)c(-c3ccccc3)nc2cc1C | > 50
c1ccc2nc(-c3c[nH]c4ccccc34)cnc2c1 | > 100
Cc1cc2nc3[nH]c4ccc(Br)cc4c3nc2cc1C | > 50
c1ccc(-c2nc3ccccc3nc2-c2ccccc2)cc1 | > 50
Cc1nc2ccccc2nc1-c1ccccc1 | > 100
O=C(c1ccccc1)c1ccc2ncc(-c3ccccc3)nc2c1 | 6
c1ccc(-c2cnc3ncccc3n2)cc1 | 35
c1ccc(-c2cnc3cc4ccccc4cc3n2)cc1 | 0.9
Cc1cc2nc(CSCCOCCSCc3nc4cc(C)c(C)cc4nc3-c3ccccc3)c(-c3ccccc3)nc2cc1C | > 50
Cc1cc2ncc(-c3ccc(O)c(O)c3)nc2cc1C | 0.6
O=C(O)c1ccc2ncc(-c3ccccc3)nc2c1 | > 50
c1coc(-c2nc3ccccc3nc2-c2ccco2)c1 | > 100
